The values that follow come from US20070123537A1, “Quinazoline derivatives for the treatment of herpesviral infections” (GPC Biotech AG, priority 2003, published 2007).

Entries after “also recorded” stand apart in the source; their conditions may differ. Read-outs that look alike come from different tables or passages of the source. A value given as a limit tells only on which side of the number the result lay.

In data set [1] the target is T1, viral kinase UL-97 (Human cytomegalovirus, UniProt P16788).
T1 construct: The UL-97 gene was cloned into a baculovirus vector in order to produce GST (glutathione S-transferase) fusion protein; GST; made in house; host or cells: Sf9 insect cells (baculovirus)
T1 sequence (P16788 whole entry, the tested form may be a part): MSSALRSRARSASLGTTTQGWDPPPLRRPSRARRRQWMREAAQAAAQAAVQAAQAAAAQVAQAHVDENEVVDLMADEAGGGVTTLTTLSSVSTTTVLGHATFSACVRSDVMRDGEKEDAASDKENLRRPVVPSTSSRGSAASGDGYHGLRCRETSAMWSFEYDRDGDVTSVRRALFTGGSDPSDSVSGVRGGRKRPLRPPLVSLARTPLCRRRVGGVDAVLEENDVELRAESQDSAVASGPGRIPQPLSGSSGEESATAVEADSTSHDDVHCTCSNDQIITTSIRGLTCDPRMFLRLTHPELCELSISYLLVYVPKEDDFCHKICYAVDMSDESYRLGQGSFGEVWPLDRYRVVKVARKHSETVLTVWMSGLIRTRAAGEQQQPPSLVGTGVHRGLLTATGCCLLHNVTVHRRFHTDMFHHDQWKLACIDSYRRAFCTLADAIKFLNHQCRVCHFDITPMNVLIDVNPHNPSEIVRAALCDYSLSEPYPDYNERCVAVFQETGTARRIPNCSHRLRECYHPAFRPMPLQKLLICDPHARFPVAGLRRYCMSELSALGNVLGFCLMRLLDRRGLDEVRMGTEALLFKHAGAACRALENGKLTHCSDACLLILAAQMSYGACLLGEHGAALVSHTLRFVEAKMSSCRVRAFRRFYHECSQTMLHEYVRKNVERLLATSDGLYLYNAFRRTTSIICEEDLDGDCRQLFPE
Put plainly: UL97 Kinase-Assay on Immobilon Plate. The format is biochemical. The method, then:
UL97 Kinase-Assay on Immobilon Plate
The effect of quinazoline derivatives on the activity of the viral kinase UL-97 was tested. This kinase is derived from human cytomegalovirus (HCMV) (Marschall, M., et al., J. Gen Virol. 2001, 82,1439-1450.). The UL-97 gene was cloned into a baculovirus vector in order to produce GST (glutathione S-transferase) fusion protein. Insect cells (Sf9) were infected and GST-UL-97 purified via glutathione affinity columns according to standard procedures.
The UL-97 kinase reaction was performed as described (Marschall M. et aL, J. Gen. Virol. 2001, 82, 1439-1450). Briefly, 10 μl Assay buffer (3 μM ATP, 60 μg/ml myelin basic protein (MBP) as substrate), 1,0 μCi gamma[^33P]ATP and 10 μp, Basic buffer (20mM Tris-HCl 7.5, 500 μM MnCl2, 1 mM DTT (dithiothreitol)) were given to the test tube before adding various concentrations of the quinazoline derivatives. The reaction was started by adding 0.2 μl UL97 kinase, purified from infected Sf9-insect cells as described above. The total volume was adjusted with Basic buffer to a final volume of 30 μl. The reaction mix was incubated for 1 hr at 30° C. For negative control, 10 μl 0.1 M EDTA (ethylene diamine tetraacetate) was added to reaction mix before addition of UL-97 protein kinase. The reaction was stopped by addition of 10 μl 0.1 M EDTA.
Measuring Incorporation of Radioactivity
An Immobilon plate (Millipore) was rinsed with 50 μl methanol/well. Following addition of 100 μl 0.1 M EDTA, 20 μl of each kinase reaction mix was added to one well of the Immobilon plate. Each well was washed 4× with 250 μl 0.75% phosphoric acid and 1× with 50 μl methanol. After addition of 50 μl scintillation cocktail (Roth, Germany) per well incorporation of radioactivity was measured using a Betareader (Wallac) and enzymatic activity calculated.

Data set [2] deals with HCMV AD-169. Put plainly: HCMV infection of HFFs, reporter gene based antiviral assay. The format is cell-based, Human Cytomegalovirus (HCMV). As to conditions: for HCMV AD 169 Replication [%] of control at 3 μM: 3 μM compound, HFFs, reporter gene activity after seven days; for IC50: replication of HCMV strain AD 169 in HFF cells, read-out: HCMV AD 169 IC 50. The method, then:
To examine the effect of the quinazoline derivatives on HCMV replication, HCMV infections were performed in a cellular system.
Human foreskin fibroblasts (HFFs) were grown to subconfluency in 12 well plates and infected with 0.25 tissue culture infectious doses of HCMV AD-169 carrying a reporter gene (HCMV based antiviral assay). Quinazoline derivatives (stocks in DMSO (Dimethylsulfoxide)) were diluted in culture medium to the concentrations indicated and added to the cells immediately after virus adsorption. The success of infection (reporter gene expressing cells) and the lack of cytotoxicity of the compound (confluent cell layer) was monitored by microscopy. After seven days, cell layers were harvested, lysed and subjected to the automated fluorometry measurement of reporter gene activity. Each panel refers to a determination in quadruplicate (infection in duplicate, lysate preparation and measurement in duplicate).

Data set [3] concerns the target T2, UL 97 (Human cytomegalovirus, UniProt P16788).
T2 construct: expressed in transfected cells; host or cells: HEK 293
Put plainly: UL 97 in-cell activity: protection of HEK 293 cells ectopically expressing UL 97 against toxic GCV. The format is cell-based, human cytomegalovirus (HCMV). The following applies: HEK 293 cells expressing UL 97. The method, then:
(§1) Furthermore, clinical isolates of HCMV like R5, R3 and R2 were used for the infection of HFFs in a plaque reduction assay under the conditions described above. Parallel experiments on phenotype characterization , gene sequencing and UL 97-in-cell-activity assay (GCV phosphorylation) with cloned UL 97 were performed (Marschall, M., et al., J. Gen Virol. 2001, 82, 1439-1450).
Furthermore, (IC50)-values of HCMV replication was measured for some compounds in a cellular system. Some quinazoline derivatives protect HEK 293 cells ectopially expressing UL 97 against toxic concentrations of GCV (10 and 20 μM respectively).

For data set [4], the system named is HEK 293 cells. Put plainly: Toxicity assay in HEK 293 cells. The format is cell-based. The method, then: Toxicity Assay: Toxicity of the quinazoline derivatives was measured by incubating HEK 293 cells with 10 μM of each derivative. The corresponding amount of DMSO served as control.
Data set [5] has as its system HCMV reference strain AD 169. The data set is described as follows: Plaque reduction assay, HCMV AD 169 in HFFs. The format is cell-based, Human Cytomegalovirus (HCMV). As to conditions: Human betaherpesvirus 5, 192 h, read-out: IC50 in the plaque reduction assay. The method, then: (§2) HCMV reference strain AD 169 was used at an MOI (multiplicity of infection) of 0.004 for the infection of HFFs in 12 well plates as described in FIG. 2. After virus adsorption, the infected cell layers were overlayed with fresh medium containing the compound concentration as indicated in FIG. 2 and 0.3% agarose. After eight days postinfection, a staining of virus plaques was performed by the use of 1% crystal violet. Quantification was achieved by microscopic counting in quadruplicate (infection in duplicate, counting in duplicate).

Data set [6] concerns clinical HCMV strain R2. The data set is described as follows: Plaque reduction assay, clinical isolate R2. The format is cell-based, Human Cytomegalovirus (HCMV). The following applies: Human betaherpesvirus 5; GCV- and CDV-resistant strain; read-out: IC 50, clinical strain R2. The method, then: as §2, §1
(§3) Three clinical HCMV strains were investigated on replication in the presence of the selected quinazoline derivatives 3,4-Dichloro-phenyl)-quinazolin-4-yl-amine (compound 37), (3,4-Dichloro-phenyl)-(6-methyl-quinazolin-4-yl)-amine (compound 49) and (4-Bromo-phenyl)-quinazolin-4-yl-amine (compound 98).

The test system of data set [7] is clinical HCMV isolate R3. Put plainly: Plaque reduction assay, clinical isolate R3. The format is cell-based, Human Cytomegalovirus (HCMV). The following applies: partially GCV resistant, CDV sensitive isolate; read-out: IC 50, clinical isolate R3. The method, then:
as §2, §1, §3

Data set [8] relates to clinical HCMV isolate R5. The data set is described as follows: Plaque reduction assay, clinical isolate R5. As to conditions: GCV sensitive and CDV sensitive isolate; read-out: IC 50, clinical isolate R5. The format is cell-based, Human Cytomegalovirus (HCMV). The method, then: as §2, §1, §3
Data set [9] relates to HCMV mutant AD169deIUL97. Put plainly: Plaque reduction assay with UL97-deleted HCMV mutant. The format is cell-based, Human Cytomegalovirus (HCMV). The following applies: 50 nM NGIC-I, 10 μM compound 37 or 2 μM CDV. The method, then: FIG. 3: Replication of UL97-deleted HCMV in the presence of pUL97 inhibitors. Plaque assays were performed with HCMV mutant AD169deIUL97, carrying a deletion in the UL97 gene, in the presence of 0.1% DMSO (no inhib.), 50 nM NGIC-I, 10 μM compound 37 or 2 μM CDV as indicated.
To confirm the conclusion that pUL97 is the target for the antiviral activity of quinazolines, we performed an experiment with an UL97-deleted mutant of HCMV (AD169deIUL97) (Prichard, M. N., Gao, N., Jairath, S., Mulamba, G., Krosky, P., Coen, D. M., Parker, B. O., and Pari, G. S., J. Virol. […], 73, 5663).

The mark [10] stands for this setting: 3 μM ATP, MBP substrate, read-out: UL 97 IC 50.
The mark [11] stands for this setting: Human betaherpesvirus 5, AD169, HFF.
[12] abbreviates: HCMV AD 169, HFFs, eight days postinfection.

T2 sequence (P16788 whole entry): as the sequence (P16788 whole entry, the tested form may be a part) above

In the case of `Fc1ccc(Nc2ncnc3ccccc23)cc1` [Compound 88, (4-Fluoro-phenyl)-quinazolin-4-yl-amine], in [1], the “inhibition of UL 97-kinase activity (in words)” value (“inhibition” below) was “potent inhibitors”. Moreover, in data set [1] (setting [10]), the IC50 was found to be 0.2 µM.
On to `Cc1ccc2ncnc(Nc3ccc(Br)cc3)c2c1` [Compound 43, (4-Bromo-phenyl)-(6-methyl-quinazolin-4-yl)-amine], for which, in data set [1], the “inhibition” value was “potent inhibitors”. Besides, the IC50 in data set [1] (setting [10]) is more than 0.1 µM. Besides, the “HCMV AD 169 Replication [%] of control at 3 μM” value (shortened to “HCMV AD 169 Replication [%]”) in data set [2] was 20%.
As for `Clc1cccc(Nc2ncnc3ccccc23)c1` [Compound 87, (3-Chloro-phenyl)-quinazolin-4-yl-amine], in data set [1], the “inhibition” value was “potent inhibitors”. In addition, the IC50 in [1] (setting [10]) is 0.7 µM.
On to `CCc1cccc(Nc2ncnc3ccc(C)cc23)c1` [Compound 89, (3-Ethyl-phenyl)-(6-methyl-quinazolin-4-yl)-amine], for which, in [1], the “inhibition” value is recorded as “potent inhibitors”.
On to `Cc1ccc2ncnc(Nc3ccc(Cl)c(Cl)c3)c2c1` [Compound 49, (3,4-Dichloro-phenyl)-(6-methyl-quinazolin-4-yl)-amine], for which the “inhibition” value in [1] was “potent inhibitors”. Moreover, the IC50 in [1] (setting [10]) is 0.02 µM; in [2] (setting [11]) it was 2 to 3 µM; in data set [2], 2.5 µM; in [5] it was 2.5 to 5 µM. The “HCMV AD 169 Replication [%]” value in data set [2] is on record as 20%. Moreover, the “UL 97 GCV [%] growth at conc. [μM]” value in [3] (at 10 μM) is 80% at 10 μM. Also, in data set [4], the “Viability [%] at 10 μM” value is listed as 78%.
Regarding `Nc1nc(O)c2ncn(COC(CO)CO)c2n1` [ganciclovir], the IC50 in data set [2] (setting [11]) is 3 to 4 µM; in data set [5] (setting [12]), 4 to 6 µM; in data set [6] it was 34 µM; in [7], 20 µM; in data set [8] it was 4.1 µM.
Consider `Nc1ccn(C[C@@H](CO)OCP(=O)(O)O)c(=O)n1` [CDV, Cidofovir], for which the IC50 in data set [6] worked out at 4.2 µM; in data set [7], 0.35 µM; in data set [8], 0.7 µM. Moreover, the “effect on replication of AD169deIUL97 (plaque assay)” value in [9] is given as “complete inhibition; also recorded: efficiently blocked”.
Regarding `Brc1ccc(Nc2ncnc3ccccc23)cc1` [Compound 98, (4-Bromo-phenyl)-quinazolin-4-yl-amine], in data set [1], the “inhibition” value is listed as “potent inhibitors”. Besides, the IC50 in [1] (setting [10]) is 0.17 µM; in data set [2] (setting [11]) it was 2 to 3 µM; in [2], 2 µM; in [5] (setting [12]), 2.5 to 5 µM. The “HCMV AD 169 Replication [%]” value in [2] came to 30%. In addition, the “UL 97 GCV [%] growth at conc. [μM]” value was 80% in data set [3] (at 10 μM) and 60% in [3] (at 20 μM). In addition, the “Viability [%] at 10 μM” value in [4] was found to be 75%.
On to `Ic1ccc(Nc2ncnc3ccccc23)cc1` [Compound 72, (4-lodo-phenyl)-quinazolin-4-yl-amine], for which the “inhibition” value in [1] was “potent inhibitors”. Also, the IC50 in data set [1] (setting [10]) is 0.2 µM.
In the case of `COc1cc2ncnc(Nc3ccc(Br)cc3)c2cc1OC` [Compound 31, (4-Bromo-phenyl)-(6,7-dimethoxy-quinazolin-4-yl)-amine], in [1], the “inhibition” value was “potent inhibitors”. Also, the IC50 in [1] (setting [10]) is 1.2 µM. Moreover, the “HCMV AD 169 Replication [%]” value in [2] is 60%.
`c1ccc(Nc2ncnc3ccccc23)cc1` [Compound 84, Phenyl-quinazolin-4-yl-amine] gave an IC50 in [1] of 0.3 µM.
For the compound `Fc1ccc2c(Nc3cccc(Cl)c3)ncnc2c1` [Compound 70, (3-Chloro-phenyl)-(7-fluoro-quinazolin-4-yl)-amine], the “inhibition” value in data set [1] is recorded as “potent inhibitors”.
With `Clc1ccc(Nc2ncnc3ccccc23)cc1Cl` [Compound 37, (3,4-Dichloro-phenyl)-quinazolin-4-yl-amine], the “inhibition” value in [1] was “potent inhibitors”. The IC50 was 0.04 µM in data set [1] (setting [10]), 2 to 3 µM in [2] (setting [11]), 3 µM in data set [2] and 2.5 to 5 µM in data set [5] (setting [12]). Also, in [2], the “HCMV AD 169 Replication [%]” value was determined as 45%. Moreover, the “UL 97 GCV [%] growth at conc. [μM]” value is listed as 80% in [3] (at 10 μM) and 50% in data set [3] (at 20 μM). The “Viability [%] at 10 μM” value in data set [4] is listed as 77%. Also, the “effect on replication of AD169deIUL97 (plaque assay)” value in data set [9] is on record as “only little or no effect”; in [9] (listed as compound 37), “not”.
